Patent publication US20230278972A1, “SUBSTITUTED HALOALKYL SULFONANILIDE HERBICIDES” (FMC Corporation, priority 2020, published 2023)

What was measured:
Assay type in all cases: in vivo
[1] = test system: corn (Zea mays); test: Test A postemergence, corn; conditions: Postemergence, 0 to 100 scale (0 no effect, 100 complete control)
In short: (§1)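 Compounds in non-phytotoxic solvent with surfactant. Soil: loam/sand. Preemergence via directed soil spray after seeding; postemergence on seedlings 2–10 cm, one- to two-leaf.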

[2] = test system: ragweed (common ragweed, Ambrosia artemisiifolia); test: Test A postemergence, ragweed; conditions: Postemergence, 0 to 100 scale (0 no effect, 100 complete control)
In short: as §1

[3] = test system: galium (catchweed bedstraw, Galium aparine); test: Test A postemergence, galium; conditions: Postemergence, 0 to 100 scale (0 no effect, 100 complete control)
In short: (§2)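 Formulated with a surfactant in a non-phytotoxic solvent, compounds are applied to loam–sand pots, either to bare soil immediately after seeding (preemergence) or to seedlings of 2 to 10 cm bearing one to two leaves (postemergence).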

[4] = test system: pigweed (Amaranthus retroflexus); test: Test A preemergence, pigweed; conditions: for Pigweed plant response rating: visual injury on 0 to 100 scale (0 no effect, 100 complete control), approximately 10 days; for Plant response rating, Pigweed: 0 to 100 scale (0 no effect, 100 complete control)
In short: as §2

[5] = test system: Ryegrass, Italian (Italian ryegrass, Lolium multiflorum); test: Test A preemergence, Ryegrass, Italian; conditions: Preemergence; for Ryegrass, Italian plant response rating: visual injury on 0 to 100 scale (0 no effect, 100 complete control), approximately 10 days; for Plant response rating, Ryegrass, Italian: 0 to 100 scale (0 no effect, 100 complete control)
In short: as §1

[6] = test system: Foxtail, Giant (giant foxtail, Setaria faberi); test: Test A postemergence, Foxtail, Giant; conditions: Postemergence, 0 to 100 scale (0 no effect, 100 complete control)
In short: as §1

[7] = test system: Foxtail, Giant (giant foxtail, Setaria faberi); test: Test A preemergence, Foxtail, Giant; conditions: Preemergence; for Foxtail, Giant plant response rating: visual injury on 0 to 100 scale (0 no effect, 100 complete control), approximately 10 days; for Plant response rating, Foxtail, Giant: 0 to 100 scale (0 no effect, 100 complete control)
In short: as §1

[8] = test system: ragweed (common ragweed, Ambrosia artemisiifolia); test: Test A preemergence, ragweed; conditions: Preemergence; for Ragweed plant response rating: visual injury on 0 to 100 scale (0 no effect, 100 complete control), approximately 10 days; for Plant response rating, Ragweed: 0 to 100 scale (0 no effect, 100 complete control)
In short: as §1

[9] = test system: kochia (Bassia scoparia); test: Test A preemergence, kochia; conditions: Preemergence; for Kochia plant response rating: visual injury on 0 to 100 scale (0 no effect, 100 complete control), approximately 10 days; for Plant response rating, Kochia: 0 to 100 scale (0 no effect, 100 complete control)
In short: as §1

[10] = test system: kochia (Bassia scoparia); test: Test A postemergence, kochia; conditions: Postemergence, 0 to 100 scale (0 no effect, 100 complete control)
In short: as §1

[11] = test system: Ryegrass, Italian (Italian ryegrass, Lolium multiflorum); test: Test A postemergence, Ryegrass, Italian; conditions: Postemergence, 0 to 100 scale (0 no effect, 100 complete control)
In short: as §1

[12] = test system: wheat (Triticum aestivum); test: Test A postemergence, wheat; conditions: Postemergence, 0 to 100 scale (0 no effect, 100 complete control)
In short: as §2

[13] = test system: blackgrass (Alopecurus myosuroides); test: Test A postemergence, blackgrass; conditions: Postemergence, 0 to 100 scale (0 no effect, 100 complete control)
In short: as §1

[14] = test system: barnyardgrass (Echinochloa crus-galli); test: Test A preemergence, barnyardgrass; conditions: Preemergence; for Barnyardgrass plant response rating: visual injury on 0 to 100 scale (0 no effect, 100 complete control), approximately 10 days; for Plant response rating, Barnyardgrass: 0 to 100 scale (0 no effect, 100 complete control)
In short: as §1

[15] = test system: barnyardgrass (Echinochloa crus-galli); test: Test A postemergence, barnyardgrass; conditions: Postemergence, 0 to 100 scale (0 no effect, 100 complete control)
In short: as §2

[16] = test system: pigweed (Amaranthus retroflexus); test: Test A postemergence, pigweed; conditions: Postemergence, 0 to 100 scale (0 no effect, 100 complete control)
In short: as §1

[17] = 125 g ai/ha, visual injury approx. 10 days
[18] = 500 g ai/ha, visual injury, approx. 10 days
[19] = 500 g ai/ha, visual injury approx. 10 days
[20] = 125 g ai/ha, visual injury, approx. 10 days
[21] = 500 g ai/ha, visual injury vs untreated controls after approx. 10 days

Cc1cc(Cl)c(N(S(=O)(=O)C(F)(F)F)S(=O)(=O)C(F)(F)F)cc1-c1cn(C)c(=O)n(C)c1=O [Compound 38]
60: Plant response rating, Kochia [10, 17] | Plant response rating, Ryegrass, Italian [11, 17] | Plant response rating, Barnyardgrass [15, 17]
70: Plant response rating, Corn [1, 18] | Ragweed plant response rating ([8]; 125 g ai/ha) | Plant response rating, Kochia [10, 18] | Plant response rating, Wheat [12, 17] | Plant response rating, Wheat [12, 18] | Plant response rating, Pigweed [16, 17]
40: Pigweed plant response rating ([4]; 125 g ai/ha)
20: Plant response rating, Corn [1, 17]
90: Plant response rating, Ragweed [2, 18] | Plant response rating, Galium [3, 18] | Plant response rating, Foxtail, Giant [6, 17] | Plant response rating, Foxtail, Giant [6, 18] | Plant response rating, Ragweed ([8]; 500 g ai/ha) | Plant response rating, Kochia ([9]; 500 g ai/ha) | Plant response rating, Blackgrass [13, 18] | Barnyardgrass plant response rating ([14]; 125 g ai/ha) | Plant response rating, Pigweed [16, 18]
100: Ryegrass, Italian plant response rating ([5]; 125 g ai/ha) | Plant response rating, Ryegrass, Italian ([5]; 500 g ai/ha) | Foxtail, Giant plant response rating ([7]; 125 g ai/ha) | Plant response rating, Foxtail, Giant ([7]; 500 g ai/ha) | Plant response rating, Barnyardgrass ([14]; 500 g ai/ha)
80: Plant response rating, Ragweed [2, 17] | Plant response rating, Galium [3, 17] | Plant response rating, Pigweed ([4]; 500 g ai/ha) | Kochia plant response rating ([9]; 125 g ai/ha) | Plant response rating, Ryegrass, Italian [11, 18] | Plant response rating, Blackgrass [13, 17] | Plant response rating, Barnyardgrass [15, 18]

Cc1cc(C)c(C2=NOC3(CCCCCC3)C2)cc1NS(=O)(=O)C(F)(F)F [Compound 277]
80: Ragweed plant response rating ([8]; 500 g ai/ha)
90: Plant response rating, Foxtail, Giant [6, 19] | Plant response rating, Kochia [9, 20] | Plant response rating, Barnyardgrass [15, 19]
40: Plant response rating, Kochia [10, 19]
30: Plant response rating, Foxtail, Giant ([6]; 125 g ai/ha) | Plant response rating, Pigweed ([16]; 125 g ai/ha)
0: Plant response rating, Ryegrass, Italian ([11]; 125 g ai/ha) | Plant response rating, Wheat ([12]; 125 g ai/ha)
60: Plant response rating, Ragweed [2, 19] | Plant response rating, Pigweed [4, 20] | Plant response rating, Ryegrass, Italian [11, 19] | Plant response rating, Blackgrass [13, 19]
10: Plant response rating, Corn ([1]; 125 g ai/ha) | Plant response rating, Ragweed [8, 20] | Plant response rating, Kochia ([10]; 125 g ai/ha) | Plant response rating, Blackgrass ([13]; 125 g ai/ha)
100: Plant response rating, Galium ([3]; 125 g ai/ha) | Plant response rating, Galium [3, 19] | Pigweed plant response rating ([4]; 500 g ai/ha) | Plant response rating, Ryegrass, Italian [5, 20] | Ryegrass, Italian plant response rating ([5]; 500 g ai/ha) | Plant response rating, Foxtail, Giant [7, 20] | Foxtail, Giant plant response rating ([7]; 500 g ai/ha) | Kochia plant response rating ([9]; 500 g ai/ha) | Plant response rating, Barnyardgrass [14, 20] | Barnyardgrass plant response rating ([14]; 500 g ai/ha)
20: Plant response rating, Ragweed ([2]; 125 g ai/ha) | Plant response rating, Barnyardgrass ([15]; 125 g ai/ha)
70: Plant response rating, Corn [1, 19] | Plant response rating, Wheat [12, 19] | Plant response rating, Pigweed [16, 19]

Cc1cc(F)c(C(=O)N2CCC(C#N)CC2)cc1N(S(=O)(=O)C(F)(F)F)S(=O)(=O)C(F)(F)F [Compound 239]
10: Corn plant response rating [1, 21] | Kochia plant response rating [10, 21]
50: Pigweed plant response rating [16, 21]
30: Ryegrass, Italian plant response rating ([5]; 500 g ai/ha) | Foxtail, Giant plant response rating [6, 21] | Plant response rating, Kochia [9, 20]
20: Plant response rating, Foxtail, Giant [7, 20] | Plant response rating, Ragweed [8, 20] | Plant response rating, Barnyardgrass ([14]; 500 g ai/ha) | Plant response rating, Pigweed ([16]; 125 g ai/ha)
70: Ragweed plant response rating ([8]; 500 g ai/ha)
60: Plant response rating, Pigweed [4, 20] | Foxtail, Giant plant response rating ([7]; 500 g ai/ha)
80: Kochia plant response rating ([9]; 500 g ai/ha)
40: Galium plant response rating [3, 21]
0: Plant response rating, Corn ([1]; 125 g ai/ha) | Plant response rating, Ragweed ([2]; 125 g ai/ha) | Ragweed plant response rating [2, 21] | Plant response rating, Galium ([3]; 125 g ai/ha) | Plant response rating, Ryegrass, Italian [5, 20] | Plant response rating, Foxtail, Giant ([6]; 125 g ai/ha) | Plant response rating, Kochia ([10]; 125 g ai/ha) | Plant response rating, Ryegrass, Italian ([11]; 125 g ai/ha) | Ryegrass, Italian plant response rating [11, 21] | Plant response rating, Wheat ([12]; 125 g ai/ha) | Wheat plant response rating [12, 21] | Plant response rating, Blackgrass ([13]; 125 g ai/ha) | Blackgrass plant response rating [13, 21] | Plant response rating, Barnyardgrass [14, 20] | Plant response rating, Barnyardgrass ([15]; 125 g ai/ha) | Barnyardgrass plant response rating [15, 21]
90: Pigweed plant response rating ([4]; 500 g ai/ha)
